Test results from PubChem BioAssay (NCI).
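Grown in 96-well plates, cells were treated for 48 hours with each compound at five concentrations. Insufficient inhibition: endpoint recorded as highest concentration tested. Abbreviation: GI50, concentration required for 50% inhibition of growth. TGI: total growth inhibition.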

Tests used:
Experiment in all cases: NCI anticancer screen, dose series, 48 h
786-0 renal = tested on: 786-0 renal
A498 renal = tested on: A498 renal
A549 NSCLC = tested on: A549 NSCLC
ACHN renal = tested on: ACHN renal
BT-549 breast = tested on: BT-549 breast
CAKI-1 renal = tested on: CAKI-1 renal
CCRF-CEM leukemia = tested on: CCRF-CEM leukemia
COLO 205 colon = tested on: COLO 205 colon
DU-145 prostate = tested on: DU-145 prostate
EKVX NSCLC = tested on: EKVX NSCLC
HCC-2998 colon = tested on: HCC-2998 colon
HCT-116 colon = tested on: HCT-116 colon
HCT-15 colon = tested on: HCT-15 colon
HOP-62 NSCLC = tested on: HOP-62 NSCLC
HOP-92 NSCLC = tested on: HOP-92 NSCLC
HS 578T breast = tested on: HS 578T breast
HT29 colon = tested on: HT29 colon
IGROV1 ovarian = tested on: IGROV1 ovarian
KM12 colon = tested on: KM12 colon
LOX IMVI melanoma = tested on: LOX IMVI melanoma
M14 melanoma = tested on: M14 melanoma
MCF7 breast = tested on: MCF7 breast
MDA-MB-231 breast = tested on: MDA-MB-231 breast
MDA-MB-435 = tested on: MDA-MB-435
MOLT-4 leukemia = tested on: MOLT-4 leukemia
NCI-H226 lung = tested on: NCI-H226 lung
NCI-H23 lung = tested on: NCI-H23 lung
NCI-H460 lung = tested on: NCI-H460 lung
NCI-H522 lung = tested on: NCI-H522 lung
NCI/ADR-RES ovarian = tested on: NCI/ADR-RES ovarian
OVCAR-3 ovarian = tested on: OVCAR-3 ovarian
OVCAR-4 ovarian = tested on: OVCAR-4 ovarian
OVCAR-5 ovarian = tested on: OVCAR-5 ovarian
OVCAR-8 ovarian = tested on: OVCAR-8 ovarian
PC-3 prostate = tested on: PC-3 prostate
RPMI-8226 leukemia = tested on: RPMI-8226 leukemia
RXF 393 renal = tested on: RXF 393 renal
SF-268 CNS = tested on: SF-268 CNS
SF-295 CNS = tested on: SF-295 CNS
SF-539 CNS = tested on: SF-539 CNS
SK-MEL-2 melanoma = tested on: SK-MEL-2 melanoma
SK-MEL-28 melanoma = tested on: SK-MEL-28 melanoma
SK-MEL-5 melanoma = tested on: SK-MEL-5 melanoma
SK-OV-3 ovarian = tested on: SK-OV-3 ovarian
SN12C renal = tested on: SN12C renal
SNB-19 CNS = tested on: SNB-19 CNS
SNB-75 CNS = tested on: SNB-75 CNS
SW-620 colon = tested on: SW-620 colon
T-47D breast = tested on: T-47D breast
U251 CNS = tested on: U251 CNS
UACC-257 melanoma = tested on: UACC-257 melanoma
UACC-62 melanoma = tested on: UACC-62 melanoma
UO-31 renal = tested on: UO-31 renal
K-562 leukemia = tested on: K-562 leukemia
TK-10 renal = tested on: TK-10 renal
HL-60(TB) leukemia = tested on: HL-60(TB) leukemia
SR leukemia = tested on: SR leukemia

Compound: O=C1CS/C(=N/S(=O)(=O)c2ccc(N3N=C4c5ccccc5CC4C3c3cccs3)cc2)N1C(=O)c1ccccc1 (configuration not stated)
- GI50 (786-0 renal): 48.8 µM
- TGI (786-0 renal): > 100 µM
- GI50 (A498 renal): 23.6 µM
- TGI (A498 renal): 94.6 µM
- GI50 (A549 NSCLC): 70.8 µM
- TGI (A549 NSCLC): > 100 µM
- GI50 (ACHN renal): 39 µM
- TGI (ACHN renal): > 100 µM
- GI50 (BT-549 breast): 33.5 µM
- TGI (BT-549 breast): > 100 µM
- GI50 (CAKI-1 renal): 63.9 µM
- TGI (CAKI-1 renal): > 100 µM
- GI50 (CCRF-CEM leukemia): 37.5 µM
- TGI (CCRF-CEM leukemia): > 100 µM
- GI50 (COLO 205 colon): 51.1 µM
- TGI (COLO 205 colon): > 100 µM
- GI50 (DU-145 prostate): 38.2 µM
- TGI (DU-145 prostate): > 100 µM
- GI50 (EKVX NSCLC): 42.4 µM
- TGI (EKVX NSCLC): > 100 µM
- GI50 (HCC-2998 colon): 17.6 µM
- TGI (HCC-2998 colon): 46.6 µM
- GI50 (HCT-116 colon): 22 µM
- TGI (HCT-116 colon): 55.9 µM
- GI50 (HCT-15 colon): 56.3 µM
- TGI (HCT-15 colon): > 100 µM
- GI50 (HOP-62 NSCLC): 32.9 µM
- TGI (HOP-62 NSCLC): 63 µM
- GI50 (HOP-92 NSCLC): 37.3 µM
- TGI (HOP-92 NSCLC): > 100 µM
- GI50 (HS 578T breast): 25.3 µM
- TGI (HS 578T breast): > 100 µM
- GI50 (HT29 colon): 76.1 µM
- TGI (HT29 colon): > 100 µM
- GI50 (IGROV1 ovarian): 28.3 µM
- TGI (IGROV1 ovarian): > 100 µM
- GI50 (KM12 colon): 21.4 µM
- TGI (KM12 colon): 56.4 µM
- GI50 (LOX IMVI melanoma): 22.7 µM
- TGI (LOX IMVI melanoma): 54 µM
- GI50 (M14 melanoma): 44.7 µM
- TGI (M14 melanoma): > 100 µM
- GI50 (MCF7 breast): > 100 µM
- TGI (MCF7 breast): > 100 µM
- GI50 (MDA-MB-231 breast): 44.6 µM
- TGI (MDA-MB-231 breast): > 100 µM
- GI50 (MDA-MB-435): 37.4 µM
- TGI (MDA-MB-435): > 100 µM
- GI50 (MOLT-4 leukemia): 22.2 µM
- TGI (MOLT-4 leukemia): 53.4 µM
- GI50 (NCI-H226 lung): 58.5 µM
- TGI (NCI-H226 lung): > 100 µM
- GI50 (NCI-H23 lung): 25.1 µM
- TGI (NCI-H23 lung): 61.1 µM
- GI50 (NCI-H460 lung): > 100 µM
- TGI (NCI-H460 lung): > 100 µM
- GI50 (NCI-H522 lung): 60.1 µM
- TGI (NCI-H522 lung): > 100 µM
- GI50 (NCI/ADR-RES ovarian): > 100 µM
- TGI (NCI/ADR-RES ovarian): > 100 µM
- GI50 (OVCAR-3 ovarian): 59.2 µM
- TGI (OVCAR-3 ovarian): > 100 µM
- GI50 (OVCAR-4 ovarian): > 100 µM
- TGI (OVCAR-4 ovarian): > 100 µM
- GI50 (OVCAR-5 ovarian): 32.2 µM
- TGI (OVCAR-5 ovarian): > 100 µM
- GI50 (OVCAR-8 ovarian): 45.7 µM
- TGI (OVCAR-8 ovarian): > 100 µM
- GI50 (PC-3 prostate): 38.1 µM
- TGI (PC-3 prostate): > 100 µM
- GI50 (RPMI-8226 leukemia): 34 µM
- TGI (RPMI-8226 leukemia): > 100 µM
- GI50 (RXF 393 renal): 90.7 µM
- TGI (RXF 393 renal): > 100 µM
- GI50 (SF-268 CNS): > 100 µM
- TGI (SF-268 CNS): > 100 µM
- GI50 (SF-295 CNS): 31.7 µM
- TGI (SF-295 CNS): > 100 µM
- GI50 (SF-539 CNS): 44.6 µM
- TGI (SF-539 CNS): > 100 µM
- GI50 (SK-MEL-2 melanoma): > 100 µM
- TGI (SK-MEL-2 melanoma): > 100 µM
- GI50 (SK-MEL-28 melanoma): > 100 µM
- TGI (SK-MEL-28 melanoma): > 100 µM
- GI50 (SK-MEL-5 melanoma): 22.7 µM
- TGI (SK-MEL-5 melanoma): 69.6 µM
- GI50 (SK-OV-3 ovarian): > 100 µM
- TGI (SK-OV-3 ovarian): > 100 µM
- GI50 (SN12C renal): 49.6 µM
- TGI (SN12C renal): > 100 µM
- GI50 (SNB-19 CNS): 77 µM
- TGI (SNB-19 CNS): > 100 µM
- GI50 (SNB-75 CNS): > 100 µM
- TGI (SNB-75 CNS): > 100 µM
- GI50 (SW-620 colon): 38.5 µM
- TGI (SW-620 colon): > 100 µM
- GI50 (T-47D breast): > 100 µM
- TGI (T-47D breast): > 100 µM
- GI50 (U251 CNS): 36.3 µM
- TGI (U251 CNS): > 100 µM
- GI50 (UACC-257 melanoma): > 100 µM
- TGI (UACC-257 melanoma): > 100 µM
- GI50 (UACC-62 melanoma): 23.2 µM
- TGI (UACC-62 melanoma): 58.4 µM
- GI50 (UO-31 renal): > 100 µM
- TGI (UO-31 renal): > 100 µM

Compound: CN(C)c1ccc(/C=c2/c3ccccc3n3c2cc(/C=C/c2ccccc2)[n+]3C)cc1
- TGI (ACHN renal): 1.22 µM
- TGI (CAKI-1 renal): 51.2 µM
- TGI (CCRF-CEM leukemia): 0.0821 µM
- TGI (COLO 205 colon): 0.315 µM
- TGI (DU-145 prostate): 1.37 µM
- TGI (HCC-2998 colon): 1.08 µM
- TGI (HCT-15 colon): 3.49 µM
- TGI (HOP-62 NSCLC): 1.16 µM
- TGI (K-562 leukemia): > 100 µM
- TGI (MCF7 breast): 0.591 µM
- TGI (NCI/ADR-RES ovarian): > 50.6 µM
- TGI (OVCAR-3 ovarian): 0.795 µM
- TGI (OVCAR-4 ovarian): 1.86 µM
- TGI (SF-295 CNS): 0.944 µM
- TGI (SF-539 CNS): 0.132 µM
- TGI (SK-MEL-5 melanoma): 0.272 µM
- TGI (SK-OV-3 ovarian): 1.14 µM
- TGI (T-47D breast): 0.123 µM
- TGI (TK-10 renal): 3.77 µM

Compound: COc1cccc(C(C#N)NNC(=O)c2c(Cl)c(Cl)c(Cl)c(Cl)c2-c2nc3ccc(C(=O)c4ccccc4)cc3[nH]2)c1O (configuration not stated)
- TGI (786-0 renal): > 100 µM
- TGI (A498 renal): 7.29 µM
- TGI (A549 NSCLC): > 100 µM
- TGI (ACHN renal): > 100 µM
- TGI (BT-549 breast): > 100 µM
- TGI (CAKI-1 renal): > 100 µM
- TGI (CCRF-CEM leukemia): > 100 µM
- TGI (COLO 205 colon): > 100 µM
- TGI (DU-145 prostate): > 100 µM
- TGI (EKVX NSCLC): > 100 µM
- TGI (HCT-116 colon): > 100 µM
- TGI (HCT-15 colon): > 100 µM
- TGI (HL-60(TB) leukemia): > 100 µM
- TGI (HOP-62 NSCLC): 8.59 µM
- TGI (HOP-92 NSCLC): > 100 µM
- TGI (HT29 colon): > 100 µM
- TGI (IGROV1 ovarian): > 100 µM
- TGI (K-562 leukemia): > 100 µM
- TGI (KM12 colon): > 100 µM
- TGI (LOX IMVI melanoma): > 100 µM
- TGI (M14 melanoma): 25.1 µM
- TGI (MCF7 breast): > 100 µM
- TGI (MDA-MB-231 breast): > 100 µM
- TGI (MOLT-4 leukemia): > 100 µM
- TGI (NCI-H226 lung): 8.43 µM
- TGI (NCI-H23 lung): > 100 µM
- TGI (OVCAR-4 ovarian): > 100 µM
- TGI (OVCAR-5 ovarian): 70.1 µM
- TGI (OVCAR-8 ovarian): > 100 µM
- TGI (PC-3 prostate): > 100 µM
- TGI (RPMI-8226 leukemia): > 100 µM
- TGI (RXF 393 renal): 9.03 µM
- TGI (SF-295 CNS): 4.69 µM
- TGI (SK-MEL-2 melanoma): 29.4 µM
- TGI (SK-MEL-28 melanoma): > 100 µM
- TGI (SK-MEL-5 melanoma): 10.5 µM
- TGI (SK-OV-3 ovarian): > 100 µM
- TGI (SN12C renal): 7.79 µM
- TGI (SNB-19 CNS): 24.7 µM
- TGI (SNB-75 CNS): 7.46 µM
- TGI (SR leukemia): > 100 µM
- TGI (SW-620 colon): > 100 µM
- TGI (T-47D breast): > 100 µM
- TGI (TK-10 renal): > 100 µM
- TGI (U251 CNS): > 100 µM
- TGI (UACC-257 melanoma): > 100 µM
- TGI (UO-31 renal): > 100 µM
